The text below walks through data of patent US20250044299A1, “PROTEIN STABILITY ASSAY” (Medicines Discovery Catapult Limited, priority 2021, published 2025).

Assay [1] addresses T1, p38α (Homo sapiens, UniProt Q16539).
T1 construct: endogenous in cells; host or cells: HEK293T
Put plainly: Chemical protein stability assay, single-well per test compound format, AlphaLISA, HEK293T cell lysate (Example 9). It is filed as binding. The following applies: 10 μM compound, 384-well single wells. As to the method:
For signal detection an antibody detection mix was made up no more than 20 minutes prior to use.
For orientation: In Alpha technology, singlet oxygen from a donor bead excites a nearby acceptor bead.

The target of assay [2] is T2, p38α MAPK (Homo sapiens, UniProt Q16539). Put plainly: Protein stability assay, AlphaLISA endpoint, HEK293T cell lysate, AEA titration (Example 1). Type of assay: binding. Set-up: endogenous in cells; host or cells: HEK293T. The following applies: compound at 10 or 100 μM, vs DMSO only. As for the experimental part:
Lysate from HEK293T cells grown in continuous culture at 5% CO2/37° C. in full growth media (RPMI (Gibco 11835-063), 10% FCS (Gibco F7524) 1% Glutamax (Gibco 35050-061)) was produced by growing cells in flasks to 85% confluence, removing from the surface using 3 ml Tryple Select (Gibco 12563011), centrifuging (1000 rpm for 4 minutes) to pellet, washing cell pellet two times in DPBS (Gibco 14190-094), resuspending in 1 ml of DPBS (Gibco 14190-094) containing 1× HALT Protease and Phosphatase inhibitor cocktail (Thermo Scientific 78440) per flask and lysing by three cycles of a liquid nitrogen freeze followed by thawing at room temperature. […]
To run the protein stability assay, an aliquot of HEK293T cell lysate at 4 μg/μl was thawed at room temperature and 2 μl added to each well of a 384-well White ProxiPlate (Perkin Elmer 6008280) containing […], 100 μM AMG-548 (Bio-Techne 3920/10) or an equivalent volume of DMSO dosed using the Labcyte ECHO. […] While incubating, fresh 100% AEA (Acetone (11443733), Ethanol (10437341) and Acetic Acid (10365020), all from Fisher Scientific in a ratio of 50:50:0.1) denaturant was made in a glass bottle ready for use. An aliquot of 100% AEA was diluted to 50% in DPBS (Gibco 14190-094) ready to produce titration curves of denaturant. […]
Target sequence in this assay (Q16539 whole entry): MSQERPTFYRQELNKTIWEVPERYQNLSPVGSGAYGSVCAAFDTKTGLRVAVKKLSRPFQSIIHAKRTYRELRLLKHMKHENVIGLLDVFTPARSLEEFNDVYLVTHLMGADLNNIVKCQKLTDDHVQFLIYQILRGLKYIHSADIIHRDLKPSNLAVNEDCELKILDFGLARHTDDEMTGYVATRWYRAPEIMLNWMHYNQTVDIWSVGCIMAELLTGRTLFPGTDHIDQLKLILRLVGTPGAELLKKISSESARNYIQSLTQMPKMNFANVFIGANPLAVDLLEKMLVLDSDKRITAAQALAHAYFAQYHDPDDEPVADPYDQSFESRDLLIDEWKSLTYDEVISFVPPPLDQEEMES

Assay [3] addresses T2, p38α MAPK. Kind of assay: Whole cell protein stability assay, AlphaLISA endpoint, intact HEK293T cells, EA titration (Example 4). Particulars: 10 μM compound as printed, vs DMSO only. Also on record: endogenous in cells; host or cells: HEK293T. It is filed as cell-based. As for the experimental part:
HEK293T cells were grown in media (RPMI (Gibco 11835-063), 10% FCS (Gibco F7524) 1% Glutamax (Gibco 35050-061)) to approximately 85% confluence in a flask before harvesting from the surface using 3 ml Tryple Select (Gibco 12563011), washing cell pellet once in DPBS (Gibco 14190-094) and resuspending in media. Cells were counted and diluted in media to a density of 1×10^7 cell/ml.
To run the protein stability assay 5 μl of cells at a density of 1×10^7 cell/ml was added to each well of a 384-well White ProxiPlate ([…]) or an equivalent volume of DMSO dosed using the Labcyte ECHO. The contents of the plate were settled by a short pulse spin, sealed with a TopSeal-A Plus plate seal (Perkin Elmer 6050185) and the compound/lysate mixes incubated at ambient temperature for 30 minutes to 1 hour to allow potential target engagement by compound to occur. While incubating, fresh 100% EA (Ethanol (10437341) and Acetic Acid (10365020), all from Fisher Scientific in a ratio of 100:0.1) denaturant was made in a glass bottle ready for use. 100% EA was used to produce a titration curve of denaturant. […]
The dilution series to be added was made up as a 2× stock so that when 5 μl of denaturant was added to 5 μl lysate the final volume was 10 μl. […] After incubation the plate was read on a fluorescence detecting plate reader (Excitation 680 nm, Emission 615 nm) to determine well signals.
Target sequence in this assay (Q16539 whole entry): as above

The target in assay [4] is T2, p38α MAPK. Kind of assay: Protein stability assay, HeLa p38α HiBiT cell lysate, HiBiT endpoint compared with AlphaLISA endpoint (Example 7). It is filed as binding. Also on record: lysate of HeLa p38α MAPK-linked HiBiT® endogenously tagged cells; endogenous in cells; host or cells: HeLa p38α HiBiT (genome-edited, endogenously tagged). Background: HiBiT is a short tag that completes a luciferase, so light tracks the accessible tagged protein.
Target sequence in this assay (Q16539 2-360): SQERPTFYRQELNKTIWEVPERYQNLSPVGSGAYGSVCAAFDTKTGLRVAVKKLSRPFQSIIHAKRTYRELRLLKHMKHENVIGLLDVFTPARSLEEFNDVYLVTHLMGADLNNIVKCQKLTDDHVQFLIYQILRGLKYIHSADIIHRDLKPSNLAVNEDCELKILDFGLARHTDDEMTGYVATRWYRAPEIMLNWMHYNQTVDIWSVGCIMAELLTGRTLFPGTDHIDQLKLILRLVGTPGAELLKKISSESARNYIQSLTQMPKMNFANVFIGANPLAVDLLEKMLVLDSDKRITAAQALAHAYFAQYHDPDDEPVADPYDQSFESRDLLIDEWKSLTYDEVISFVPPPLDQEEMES
Experimental: Hela cells expressing the p38α target protein as a C-terminal fusion with a small peptide that includes the Promega HiBit® amino acid sequence were used as the starting material for lysate generation.
A solution containing 1:100 LgBiT® Protein and 1:100 Nano-Glo HiBiT® Lytic Substrate in PBS was created in a suitable volume. […] After incubation the plate was read on a luminescence detecting plate reader (3600 gain, 470-480 emission) to determine well signals.

T1 sequence (Q16539 whole entry): as the sequence (Q16539 whole entry) above

With `Cn1c(NC[C@@H](N)Cc2ccccc2)nc(-c2ccncc2)c(-c2ccc3ccccc3c2)c1=O` [AMG-548], the “single-well signal vs minimum signal (22% EA, DMSO vehicle)” value in assay [1] is reported as “higher Maximum effect signal”. The “stabilisation of p38α MAPK protein (shift in protein denaturation curves)” value in assay [2] is reported as “stabilisation of p38α MAPK protein in a dose dependent manner”; in assay [3] it was “stabilisation of p38α MAPK protein compared to DMSO only treatment”. The “stabilisation of p38α MAPK target protein (shift of denaturant titration curves)” value in assay [4] (100 μM compound, AEA and EA titration, HiBiT or AlphaLISA endpoints, vs DMSO only) is reported as “clear shift between the titration curves”. Also, the “effect of compound on protein unfolding, concentration response curves” value in assay [4] (HiBiT endpoint, fixed dose of denaturant) is reported as “clear dose dependent effect”.
